# Laboratory results reported in article PMC10762078, “Role of UPF1-LIN28A interaction during early differentiation of pluripotent stem cells” (Nature Communications, 2024).
# Ends that are not written are not given here.
# System: hPSCs
# Assay: RT-qPCR of pluripotency and germ-layer markers during differentiation with CPP-peptides (Supplementary Fig. 7b-e)
# Type: cell-based, human
# Settings: for Difference between means (B - A) ± SEM: P8 - P1
# Protocol: For CPP-conjugated peptide delivery, HeLa, 293T, and PA-1 cells were incubated with CPP-conjugated peptides or CPP-FITC at 2 μM in DMEM with 10% FBS for 12 h a day before cell harvest. hPSCs were treated with CPP-conjugated peptides at 10 μM in mTeSR Plus Medium, and the peptide-containing medium was changed every day over 10 days. The ROCK inhibitor (Tocris Bioscience, Y-27632) treated-hPSCs were dissociated into single cells using Accutase (Merck, SCR005) and differentiated into ectoderm, mesoderm, and endoderm using the STEMdiff Trilineage Differentiation Kit ([…] Technologies, 05230) following the manufacturer’s protocol. Differentiated cells treated with CPP-conjugated peptides were analysed at 0, 3, and 5 days for ectoderm and endoderm, and at 0, 3, and 4 days for mesoderm. […]
# cDNA was synthesised using RevertAid Reverse Transcriptase (Thermo Fisher Scientific, EP0441) with synthesised random hexamer (Macrogen) for total RNA or stem-loop primers for miRNA. For RT-qPCR reactions, the SensiFAST SYBR No-ROX kit (Meridian Bioscience) was used according to the manufacturer’s protocol. All data analysis and visualisation were conducted using R 3.6.1 [www.r-project.org] or GraphPad Prism 10. RT primers for miRNA and RT-qPCR primer sequences are provided in Supplementary Data 6. […]
# FPKM of each gene was presented f r om RNA-seq analysis. b–e hPSCs wer e treated with the indicated peptide during each germ la ye r differentiation. […]
# An unpaired Student’s t-test was used for a–e. Data are presented as mean values ± SEM. All statistical test us ed wer e two-s ided. T he m inim um number of independent biological replicate experim ents was a–f n = 3. T he experiments wer e conducted three tim es, each iteration producing consistent results.
# [1] = Fig. s7d, day 3, mean of 3 replicates
# [2] = Fig. s7d, day 4, mean of 3 replicates
sequence,measurement,setting,value
KKKWCRKKKSSADEKRYRALKRTAERELLMNA [P8],CXCR4 (RT-qPCR),"Day 0, replicate 1, Fig. s7e",1.088
same,CXCR4 (RT-qPCR),"Day 0, replicate 2, Fig. s7e",0.7848
same,CXCR4 (RT-qPCR),"Day 0, replicate 3, Fig. s7e",1.127
same,CXCR4 (RT-qPCR),"Day 3, replicate 1, Fig. s7e",70.9428
same,CXCR4 (RT-qPCR),"Day 3, replicate 2, Fig. s7e",396.929
same,CXCR4 (RT-qPCR),"Day 3, replicate 3, Fig. s7e",186.896
same,CXCR4 (RT-qPCR),"Day 5, replicate 1, Fig. s7e",166.399
same,CXCR4 (RT-qPCR),"Day 5, replicate 2, Fig. s7e",221.471
same,CXCR4 (RT-qPCR),"Day 5, replicate 3, Fig. s7e",55.5295
same,Difference between means (B - A) ± SEM,CXCR4 day 3,-395.9 ± 135.2
same,Mean CXCR4 (RT-qPCR),"CXCR4 day 3, mean of n = 3, Fig. s7e",218.3
same,Difference between means (B - A) ± SEM,CXCR4 day 5,-733.3 ± 94.11
same,Mean CXCR4 (RT-qPCR),"CXCR4 day 5, mean of n = 3, Fig. s7e",147.8
same,FOXA1 (RT-qPCR),"Day 0, replicate 1, Fig. s7e",1.247
same,FOXA1 (RT-qPCR),"Day 0, replicate 2, Fig. s7e",1.413
same,FOXA1 (RT-qPCR),"Day 0, replicate 3, Fig. s7e",0.3396
same,FOXA1 (RT-qPCR),"Day 3, replicate 1, Fig. s7e",74.3757
same,FOXA1 (RT-qPCR),"Day 3, replicate 2, Fig. s7e",54.052
same,FOXA1 (RT-qPCR),"Day 3, replicate 3, Fig. s7e",82.1532
same,FOXA1 (RT-qPCR),"Day 5, replicate 1, Fig. s7e",512.006
same,FOXA1 (RT-qPCR),"Day 5, replicate 2, Fig. s7e",494.768
same,FOXA1 (RT-qPCR),"Day 5, replicate 3, Fig. s7e",555.597
same,Difference between means (B - A) ± SEM,FOXA1 day 5,207.3 ± 47.14
same,Mean FOXA1 (RT-qPCR),"FOXA1 day 5, mean of n = 3, Fig. s7e",520.8
same,SOX2 difference between means (P8 - P1) ± SEM,"Fig. s7b, mesoderm, day 4, P8 vs. P1",0.07995 ± 0.0229
same,"SOX2 mRNA level (RT-qPCR), mean","Fig. s7b, mesoderm, day 4, mean of 3 replicates",0.08192
same,BMP2 mRNA level (RT-qPCR),"Fig. s7d, Day 0, replicate 1",0.8054
same,BMP4 mRNA level (RT-qPCR),"Fig. s7d, Day 0, replicate 1",1.545
same,CDH2 mRNA level (RT-qPCR),"Fig. s7d, Day 0, replicate 1",1.016
same,CXCR4 mRNA level (RT-qPCR),"Fig. s7d, Day 0, replicate 1",0.9995
same,SNAI1 mRNA level (RT-qPCR),"Fig. s7d, Day 0, replicate 1",1.4406
same,TBXT mRNA level (RT-qPCR),"Fig. s7d, Day 0, replicate 1",1.3
same,BMP2 mRNA level (RT-qPCR),"Fig. s7d, Day 0, replicate 2",1.199
same,BMP4 mRNA level (RT-qPCR),"Fig. s7d, Day 0, replicate 2",0.6508
same,CDH2 mRNA level (RT-qPCR),"Fig. s7d, Day 0, replicate 2",0.7569
same,CXCR4 mRNA level (RT-qPCR),"Fig. s7d, Day 0, replicate 2",1.121
same,SNAI1 mRNA level (RT-qPCR),"Fig. s7d, Day 0, replicate 2",0.9418
same,TBXT mRNA level (RT-qPCR),"Fig. s7d, Day 0, replicate 2",0.8652
same,BMP2 mRNA level (RT-qPCR),"Fig. s7d, Day 0, replicate 3",0.9954
same,BMP4 mRNA level (RT-qPCR),"Fig. s7d, Day 0, replicate 3",0.8046
same,CDH2 mRNA level (RT-qPCR),"Fig. s7d, Day 0, replicate 3",1.227
same,CXCR4 mRNA level (RT-qPCR),"Fig. s7d, Day 0, replicate 3",0.8798
same,SNAI1 mRNA level (RT-qPCR),"Fig. s7d, Day 0, replicate 3",0.6176
same,TBXT mRNA level (RT-qPCR),"Fig. s7d, Day 0, replicate 3",0.8351
same,BMP2 mRNA level (RT-qPCR),"Fig. s7d, Day 3, replicate 1",1.1089
same,BMP4 mRNA level (RT-qPCR),"Fig. s7d, Day 3, replicate 1",41.4056
same,CDH2 mRNA level (RT-qPCR),"Fig. s7d, Day 3, replicate 1",19.486
same,CXCR4 mRNA level (RT-qPCR),"Fig. s7d, Day 3, replicate 1",784.151
same,SNAI1 mRNA level (RT-qPCR),"Fig. s7d, Day 3, replicate 1",12.8862
same,TBXT mRNA level (RT-qPCR),"Fig. s7d, Day 3, replicate 1",3854.3
same,BMP2 mRNA level (RT-qPCR),"Fig. s7d, Day 3, replicate 2",1.096
same,BMP4 mRNA level (RT-qPCR),"Fig. s7d, Day 3, replicate 2",50.4784
same,CDH2 mRNA level (RT-qPCR),"Fig. s7d, Day 3, replicate 2",21.455
same,CXCR4 mRNA level (RT-qPCR),"Fig. s7d, Day 3, replicate 2",774.595
same,SNAI1 mRNA level (RT-qPCR),"Fig. s7d, Day 3, replicate 2",13.1184
same,TBXT mRNA level (RT-qPCR),"Fig. s7d, Day 3, replicate 2",4302.87
same,BMP2 mRNA level (RT-qPCR),"Fig. s7d, Day 3, replicate 3",1.333
same,BMP4 mRNA level (RT-qPCR),"Fig. s7d, Day 3, replicate 3",53.6277
same,CDH2 mRNA level (RT-qPCR),"Fig. s7d, Day 3, replicate 3",17.5345
same,CXCR4 mRNA level (RT-qPCR),"Fig. s7d, Day 3, replicate 3",641.469
same,SNAI1 mRNA level (RT-qPCR),"Fig. s7d, Day 3, replicate 3",12.7742
same,TBXT mRNA level (RT-qPCR),"Fig. s7d, Day 3, replicate 3",4804.52
same,BMP2 mRNA level (RT-qPCR),"Fig. s7d, Day 4, replicate 1",0.2478
same,BMP4 mRNA level (RT-qPCR),"Fig. s7d, Day 4, replicate 1",31.2396
same,CDH2 mRNA level (RT-qPCR),"Fig. s7d, Day 4, replicate 1",14.5509
same,CXCR4 mRNA level (RT-qPCR),"Fig. s7d, Day 4, replicate 1",668.803
same,SNAI1 mRNA level (RT-qPCR),"Fig. s7d, Day 4, replicate 1",16.3401
same,TBXT mRNA level (RT-qPCR),"Fig. s7d, Day 4, replicate 1",2083
same,BMP2 mRNA level (RT-qPCR),"Fig. s7d, Day 4, replicate 2",0.261
same,BMP4 mRNA level (RT-qPCR),"Fig. s7d, Day 4, replicate 2",27.7899
same,CDH2 mRNA level (RT-qPCR),"Fig. s7d, Day 4, replicate 2",13.2223
same,CXCR4 mRNA level (RT-qPCR),"Fig. s7d, Day 4, replicate 2",587.806
same,SNAI1 mRNA level (RT-qPCR),"Fig. s7d, Day 4, replicate 2",17.9864
same,TBXT mRNA level (RT-qPCR),"Fig. s7d, Day 4, replicate 2",2236.13
same,BMP2 mRNA level (RT-qPCR),"Fig. s7d, Day 4, replicate 3",0.2852
same,BMP4 mRNA level (RT-qPCR),"Fig. s7d, Day 4, replicate 3",35.8542
same,CDH2 mRNA level (RT-qPCR),"Fig. s7d, Day 4, replicate 3",15.5934
same,CXCR4 mRNA level (RT-qPCR),"Fig. s7d, Day 4, replicate 3",589.372
same,SNAI1 mRNA level (RT-qPCR),"Fig. s7d, Day 4, replicate 3",18.1009
same,TBXT mRNA level (RT-qPCR),"Fig. s7d, Day 4, replicate 3",2648.18
same,SNAI1 difference between means (P8 - P1) ± SEM,"Fig. s7d, day 3, P8 vs. P1",-10.01 ± 2.987
same,"SNAI1 difference between means, 95% confidence interval","Fig. s7d, day 3, P8 vs. P1",-18.30 to -1.717
same,TBXT difference between means (P8 - P1) ± SEM,"Fig. s7d, day 3, P8 vs. P1",-3827 ± 1244
same,"TBXT difference between means, 95% confidence interval","Fig. s7d, day 3, P8 vs. P1",-7280 to -372.8
same,"SNAI1 mRNA level (RT-qPCR), mean",[1],12.93
same,"TBXT mRNA level (RT-qPCR), mean",[1],4321
same,BMP4 difference between means (P8 - P1) ± SEM,"Fig. s7d, day 4, P8 vs. P1",18.59 ± 2.500
same,"BMP4 difference between means, 95% confidence interval","Fig. s7d, day 4, P8 vs. P1",11.65 to 25.53
same,CDH2 difference between means (P8 - P1) ± SEM,"Fig. s7d, day 4, P8 vs. P1",-2.944 ± 0.7977
same,"CDH2 difference between means, 95% confidence interval","Fig. s7d, day 4, P8 vs. P1",-5.158 to -0.7287
same,TBXT difference between means (P8 - P1) ± SEM,"Fig. s7d, day 4, P8 vs. P1",-1631 ± 305.2
same,"TBXT difference between means, 95% confidence interval","Fig. s7d, day 4, P8 vs. P1",-2478 to -783.3
same,"BMP4 mRNA level (RT-qPCR), mean",[2],31.63
same,"CDH2 mRNA level (RT-qPCR), mean",[2],14.46
same,"TBXT mRNA level (RT-qPCR), mean",[2],2322
same,GATA4 (RT-qPCR),"Day 0, replicate 1, Fig. s7e",0.7242
same,GATA4 (RT-qPCR),"Day 0, replicate 2, Fig. s7e",1.3517
same,GATA4 (RT-qPCR),"Day 0, replicate 3, Fig. s7e",0.9241
same,GATA4 (RT-qPCR),"Day 3, replicate 1, Fig. s7e",32.2
same,GATA4 (RT-qPCR),"Day 3, replicate 2, Fig. s7e",35.8526
same,GATA4 (RT-qPCR),"Day 3, replicate 3, Fig. s7e",22.1669
same,GATA4 (RT-qPCR),"Day 5, replicate 1, Fig. s7e",75.9376
same,GATA4 (RT-qPCR),"Day 5, replicate 2, Fig. s7e",69.9276
same,GATA4 (RT-qPCR),"Day 5, replicate 3, Fig. s7e",152.842
same,SOX17 (RT-qPCR),"Day 0, replicate 1, Fig. s7e",1.264
same,SOX17 (RT-qPCR),"Day 0, replicate 2, Fig. s7e",0.8709
same,SOX17 (RT-qPCR),"Day 0, replicate 3, Fig. s7e",0.8647
same,SOX17 (RT-qPCR),"Day 3, replicate 1, Fig. s7e",2247.1
same,SOX17 (RT-qPCR),"Day 3, replicate 2, Fig. s7e",1796.71
same,SOX17 (RT-qPCR),"Day 3, replicate 3, Fig. s7e",1610.91
same,SOX17 (RT-qPCR),"Day 5, replicate 1, Fig. s7e",1021.85
same,SOX17 (RT-qPCR),"Day 5, replicate 2, Fig. s7e",1109.15
same,SOX17 (RT-qPCR),"Day 5, replicate 3, Fig. s7e",1096.19
